Compound in one test: CCCS(=O)(=O)Nc1ccc(F)c(C(=O)c2c[nH]c3ncc(Cl)cc23)c1F [PLX-4720]
Kind of test: surviving fraction relative to DMSO-only wells; higher = less growth inhibition. Particulars: exposure time: 5 days. A digest of the protocol: (§1)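 Viability was scored with CellTiter-Glo luminescence and normalised to the median of DMSO-only wells as surviving fraction. Beforehand, log-phase tumour cell lines were seeded at 250–500 cells per well in 384-well plates, allowed 24 hours, and exposed continuously for five days to inhibitors at 0.5, 1, 5, 10, 50, 100, 500 and 1000 nM. Only lines whose three screens gave replicate Pearson r >0.7 and median Z' >0.3 were kept.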

Compound in test [1]: O=C(NOCC1CC1)c1ccc(F)c(F)c1Nc1ccc(I)cc1Cl
The description is as above. Particulars: exposure time: 5 days. A digest of the protocol: as §1

± gives the standard deviation of the averaged measurements.

In the case of HCC38 BREAST, the surviving fraction in the test with PLX-4720 (0.5 nM) was 0.812 ± 0.15; in the test with PLX-4720 (1 nM), 0.836 ± 0.19; with PLX-4720 (5 nM) it was 0.893 ± 0.14; with PLX-4720 (10 nM), 0.911 ± 0.17; in the test with PLX-4720 (50 nM), 1.03 ± 0.11; with PLX-4720 (100 nM), 1.05 ± 0.28. The surviving fraction in the test with PLX-4720 (500 nM) was 1.12 ± 0.1; with PLX-4720 (1000 nM) it was 1.03 ± 0.28; in test [1] (0.5 nM), 1.14 ± 0.17; in test [1] (1 nM) it was 1.11 ± 0.19; in test [1] (5 nM), 1.01 ± 0.11; in test [1] (10 nM), 1.14 ± 0.093. Also, the surviving fraction worked out at 0.998 ± 0.2 in test [1] (50 nM), 1.03 ± 0.22 in test [1] (100 nM), 1.21 ± 0.29 in test [1] (500 nM) and 1.07 ± 0.14 in test [1] (1000 nM).

In the case of HCC70 BREAST, the surviving fraction is 1.02 ± 0.06 with PLX-4720 (0.5 nM); 0.984 ± 0.14 with PLX-4720 (1 nM); 1.04 ± 0.034 in the test with PLX-4720 (5 nM); 1.02 ± 0.034 with PLX-4720 (10 nM); 1.03 ± 0.068 in the test with PLX-4720 (50 nM); 1.03 ± 0.091 in the test with PLX-4720 (100 nM). The surviving fraction came out at 1.03 ± 0.12 with PLX-4720 (500 nM); 0.963 ± 0.082 in the test with PLX-4720 (1000 nM); 0.939 ± 0.029 in test [1] (0.5 nM); 0.963 ± 0.03 in test [1] (1 nM); 1.02 ± 0.049 in test [1] (5 nM); 0.956 ± 0.058 in test [1] (10 nM). Besides, the surviving fraction in test [1] (50 nM) was found to be 0.818 ± 0.041; in test [1] (100 nM), 0.773 ± 0.052; in test [1] (500 nM), 0.601 ± 0.022; in test [1] (1000 nM), 0.528 ± 0.033.

For the test system HCC78 LUNG, the surviving fraction in the test with PLX-4720 (0.5 nM) stood at 0.318 ± 0.06; with PLX-4720 (1 nM) it was 1.01 ± 0.17; with PLX-4720 (5 nM), 0.964 ± 0.06; with PLX-4720 (10 nM), 1.05 ± 0.3; with PLX-4720 (50 nM), 0.761 ± 0.13; with PLX-4720 (100 nM), 1.01 ± 0.077. The surviving fraction turned out to be 0.869 ± 0.04 with PLX-4720 (500 nM); 0.951 ± 0.12 with PLX-4720 (1000 nM); 0.787 ± 0.12 in test [1] (0.5 nM); 0.836 ± 0.085 in test [1] (1 nM); 0.841 ± 0.11 in test [1] (5 nM); 0.832 ± 0.25 in test [1] (10 nM). The surviving fraction in test [1] (50 nM) is 0.898 ± 0.17; in test [1] (100 nM) it was 0.885 ± 0.15; in test [1] (500 nM), 0.486 ± 0.058; in test [1] (1000 nM), 0.632 ± 0.097.

With HCC202 BREAST, the surviving fraction with PLX-4720 (0.5 nM) worked out at 0.964 ± 0.1; with PLX-4720 (1 nM), 1.22 ± 0.12; with PLX-4720 (5 nM), 1.08 ± 0.17; in the test with PLX-4720 (10 nM), 1.09 ± 0.046; with PLX-4720 (50 nM) it was 1.2 ± 0.11; in the test with PLX-4720 (100 nM), 1.46 ± 0.26. Also, the surviving fraction with PLX-4720 (500 nM) is 1.12 ± 0.28; in the test with PLX-4720 (1000 nM), 1.06 ± 0.33; in test [1] (0.5 nM) it was 1.38 ± 0.41; in test [1] (1 nM), 1.49 ± 0.64; in test [1] (5 nM) it was 1.47 ± 0.2; in test [1] (10 nM), 1.28 ± 0.26. Also, the surviving fraction in test [1] (50 nM) stood at 1.46 ± 0.16; in test [1] (100 nM) it was 1.31 ± 0.099; in test [1] (500 nM), 1.37 ± 0.38; in test [1] (1000 nM) it was 1.57 ± 0.043.

Take HCC1806 BREAST: the surviving fraction was 0.727 ± 0.073 in the test with PLX-4720 (0.5 nM); 0.808 ± 0.067 in the test with PLX-4720 (1 nM); 0.861 ± 0.069 with PLX-4720 (5 nM); 0.879 ± 0.042 with PLX-4720 (10 nM); 0.858 ± 0.09 with PLX-4720 (50 nM); 1.02 ± 0.052 with PLX-4720 (100 nM). Also, the surviving fraction with PLX-4720 (500 nM) was 0.855 ± 0.13; with PLX-4720 (1000 nM) it was 0.871 ± 0.076; in test [1] (0.5 nM) it was 1.04 ± 0.026; in test [1] (1 nM), 1.01 ± 0.098; in test [1] (5 nM), 1.09 ± 0.16; in test [1] (10 nM), 1.12 ± 0.079. For the same test system, the surviving fraction in test [1] (50 nM) amounted to 1.1 ± 0.058; in test [1] (100 nM), 1.17 ± 0.048; in test [1] (500 nM), 0.761 ± 0.094; in test [1] (1000 nM) it was 0.671 ± 0.022.

Regarding HCC1954 BREAST, the surviving fraction is 0.487 ± 0.0099 in the test with PLX-4720 (0.5 nM); 0.487 ± 0.028 with PLX-4720 (1 nM); 0.455 ± 0.038 with PLX-4720 (5 nM); 0.452 ± 0.053 in the test with PLX-4720 (10 nM); 0.55 ± 0.029 with PLX-4720 (50 nM); 0.476 ± 0.027 in the test with PLX-4720 (100 nM). In addition, the surviving fraction with PLX-4720 (500 nM) was 0.466 ± 0.072; with PLX-4720 (1000 nM), 0.403 ± 0.0074; in test [1] (0.5 nM) it was 0.986 ± 0.081; in test [1] (1 nM) it was 1.13 ± 0.023; in test [1] (5 nM), 1.12 ± 0.027; in test [1] (10 nM) it was 1.05 ± 0.066. Moreover, the surviving fraction in test [1] (50 nM) was found to be 0.8718 ± 0.0032; in test [1] (100 nM), 0.805 ± 0.081; in test [1] (500 nM), 0.617 ± 0.041; in test [1] (1000 nM), 0.566 ± 0.067.

On to HCT15 LARGE INTESTINE, for which the surviving fraction with PLX-4720 (0.5 nM) was found to be 0.419 ± 0.018; in the test with PLX-4720 (1 nM), 0.875 ± 0.043; with PLX-4720 (5 nM), 0.755 ± 0.072; in the test with PLX-4720 (10 nM), 0.866 ± 0.029; with PLX-4720 (50 nM), 0.513 ± 0.025; with PLX-4720 (100 nM) it was 0.926 ± 0.046. The surviving fraction with PLX-4720 (500 nM) came to 0.886 ± 0.077; in the test with PLX-4720 (1000 nM), 1.03 ± 0.026; in test [1] (0.5 nM), 0.526 ± 0.042; in test [1] (1 nM), 0.912 ± 0.023; in test [1] (5 nM), 0.849 ± 0.05; in test [1] (10 nM), 0.936 ± 0.066. Further, the surviving fraction in test [1] (50 nM) turned out to be 0.608 ± 0.037; in test [1] (100 nM), 0.914 ± 0.039; in test [1] (500 nM) it was 0.784 ± 0.0076; in test [1] (1000 nM) it was 0.823 ± 0.05.

As for HELA CERVIX, the surviving fraction with PLX-4720 (0.5 nM) came to 0.96 ± 0.039; with PLX-4720 (1 nM) it was 0.947 ± 0.051; with PLX-4720 (5 nM) it was 0.957 ± 0.069; with PLX-4720 (10 nM), 0.953 ± 0.022; in the test with PLX-4720 (50 nM), 1 ± 0.046; with PLX-4720 (100 nM), 1.01 ± 0.025. For the same test system, the surviving fraction with PLX-4720 (500 nM) turned out to be 1 ± 0.055; in the test with PLX-4720 (1000 nM) it was 1.06 ± 0.058; in test [1] (0.5 nM) it was 0.961 ± 0.057; in test [1] (1 nM), 1.01 ± 0.09; in test [1] (5 nM), 0.97 ± 0.07; in test [1] (10 nM) it was 0.964 ± 0.08. In addition, the surviving fraction in test [1] (50 nM) is 1.02 ± 0.012; in test [1] (100 nM), 1.08 ± 0.055; in test [1] (500 nM) it was 1.09 ± 0.077; in test [1] (1000 nM), 1.12 ± 0.025.

Source of the values: the supplement of paper PMC6045584.
